In paper PMC11091072, “Targeting bacterial nickel transport with aspergillomarasmine A suppresses virulence-associated Ni-dependent enzymes” (Nature Communications, 2024):
Values joined by “and” are separate entries in the source; they are usually repeats but may differ in a detail not shown here. Identical values can stand only once. Like-named read-outs stand apart in the source and are kept apart here.

How the values were obtained:
[1] = read-out: KD for Zn^2+; cited from earlier work
AMA affinity for Zn2+ = format: binding; conditions: PAR-based competition assay, authors' reply to reviewer; read-out: Kd for Zn (typical drift)
K. pneumoniae = format: cell-based, Klebsiella pneumoniae
S. aureus = format: cell-based, Staphylococcus aureus; conditions: 200 μM, 24 h
[2] = test system: K. pneumoniae urease activity (whole cell); assay: microbe, parasite or virus in culture; format: cell-based, Klebsiella pneumoniae ATCC 33495; conditions: artificial urine; for K. pneumoniae urease-dependent pH change (pH): 37 °C
[3] = test system: struvite crystallization in K. pneumoniae cultures; assay: Struvite crystal nucleation in artificial urine cultures; format: cell-based, Klebsiella pneumoniae
Description: A The metal complexed structure, selectivity, and affinity of AMA. The constituents of AMA are labeled L-aspartate (L-Asp) and 2,3-diaminopropionic acid (APA). B Dose-response urease inhibition assays in K. pneumoniae. […] C Dose-response effect of AMA and Zn-AMA on the nucleation of struvite crystals in K. pneumoniae cultures grown in artificial urine. Crystals were examined microscopically in 96-well plates and visually quantified. […] The data represent the representative mean of two replicates. D Quantification of planktonic growth and crystal violet-stained biofilms of K. pneumoniae grown in artificial urine and varying concentrations of Zn-AMA. […] Data represent mean ± s.d. of four technical replicates. E ICP-MS quantification of cellular ^60Ni and ^66Zn content in K. pneumoniae untreated or treated with 200 μM AMA, or Zn-AMA. […] Whole-cell hydrogenase assays were performed by adding benzyl viologen (BV) at a final concentration of 1 mg/mL and monitoring its reduction at an absorbance of 630 nm. Data represent the mean of two technical replicates.
FIG S5 Microscopic detection of struvite crystals grown in artificial urine cultures of K. pneumoniae. Top row, the concentration-dependent effect of AMA on struvite formation. Bottom row, the concentration-dependent effect of Zn-AMA on struvite formation.
Bacteria were grown in 96 well flat-bottom plates for 24h at 37 °C. Brightfield micrographs were taken with a BioTek Cytation cell imaging reader at 4x magnification. Four images were taken per well and were digitally stitched to generate whole-well images. […]

S. aureus biofilm = assay: Polystyrene microtiter biofilm assay (crystal violet); format: cell-based, Staphylococcus aureus USA300; conditions: artificial urine or M9
Experimental: (§1) Biofilm assays to assess the effect of Zn-AMA were adapted from a previously described method. Overnight cultures of K. pneumoniae or S. aureus USA300 were diluted in sterile saline (NaCl, 0.9% w/v) to an OD600 of 0.1 and diluted 1/200 in either M9-Cas, or artificial urine. Two-fold dilutions of Zn-AMA were added to the cells in a 96-well round-bottom microtiter plate, and the cells were grown at 37 °C for 18 hours in a static incubator. Following incubation, the microtiter plates were agitated on an orbital shaker (300 rpm, 2 min), the planktonic cells were transferred to a fresh plate, and their OD600 was quantified. The biofilms were washed three times with deionized water, air-dried, and stained with 0.1% crystal violet for 15 min. Excess crystal violet was removed, the plates were washed with deionized water three times, and they were air-dried for 1 hour. The crystal violet-stained biofilms were solubilized in 33% acetic acid (100 μL) for 5 min, and the absorbance (600 nm) was measured. Experiments were performed in four replicates, and absorbance measurements were performed in a BioTek Synergy H1 plate reader.

K. pneumoniae biofilm = assay: as above; format: cell-based, Klebsiella pneumoniae
Experimental: as §1, with “Following incubation, the microtiter plates were agitated on an orbital shaker (300 rpm, 2 min), the planktonic cells were transferred to a fresh plate, and their OD600 was quantified.” left out, “The crystal violet-stained biofilms were solubilized in 33% acetic acid (100 μL) for 5 min, and the absorbance (600 nm) was measured.” left out

NikA [4] = format: binding, Klebsiella pneumoniae; conditions: 100 μM
NikA [5] = biological target: NikA (Klebsiella pneumoniae, UniProt A6TFA3); format: binding
Sequence of NikA (Klebsiella pneumoniae, UniProt A6TFA3) (A6TFA3 entry or part of it): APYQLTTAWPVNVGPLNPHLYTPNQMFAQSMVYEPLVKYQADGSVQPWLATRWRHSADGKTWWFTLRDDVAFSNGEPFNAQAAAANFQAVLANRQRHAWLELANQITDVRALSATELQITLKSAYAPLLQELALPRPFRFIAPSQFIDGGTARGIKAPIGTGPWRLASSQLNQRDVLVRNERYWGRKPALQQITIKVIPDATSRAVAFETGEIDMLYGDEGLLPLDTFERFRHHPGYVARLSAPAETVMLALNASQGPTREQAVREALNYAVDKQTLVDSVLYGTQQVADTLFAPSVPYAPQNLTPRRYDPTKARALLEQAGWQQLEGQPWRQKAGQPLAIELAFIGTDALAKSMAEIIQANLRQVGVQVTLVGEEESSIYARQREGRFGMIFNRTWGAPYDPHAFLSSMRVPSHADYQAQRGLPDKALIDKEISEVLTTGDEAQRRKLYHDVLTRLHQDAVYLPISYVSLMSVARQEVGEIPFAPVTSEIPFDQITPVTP

Hyd-3 = assay: [NiFe] hydrogenase zymography; format: cell-based, Escherichia coli BW25113; conditions: 150 µM, E. coli, 100% H2
Experimental: As described for whole-cell hydrogenase assays, E. coli BW25113 cultures (2 mL) in eight-well cell culture plates were grown under anaerobic conditions. The cells were harvested by centrifugation, resuspended in PBS, and lysed by sonication. Cell debris was removed by centrifugation (21,000 × g, 5 min), and Triton X-100 was added to a final concentration of 1%.
[NiFe] hydrogenase zymograms were
performed using E. coli grown in LB-glucose supplemented with 0.5 µM NiCl2 for 24h at 37 °C under anaerobic conditions. The E. coli
Triton X-100 (5% v/v) solubilized membranes were
mg/mL benzyl viologen and 1 mg/mL tetrazolium chloride under 100% H2 gas.

[6] = test system: K. pneumoniae urease activity (Ni2+ uptake); assay: Competition of Zn-AMA with Ni-(L-His)2 (urease-dependent pH); format: cell-based, Klebsiella pneumoniae
[7] = Chelex-treated nitrogen-limited medium

N[C@@H](CN[C@@H](CN[C@@H](CC(=O)O)C(=O)O)C(=O)O)C(=O)O [AMA, aspergillomarasmine A]
Kd [1]: 0.0002 µM | Kd (AMA affinity for Zn2+): 0.0001 to 0.0002 µM | Growth of K. pneumoniae with urea as a sole nitrogen source (OD600) (K. pneumoniae): 1.19 | Growth curve (culture density) (K. pneumoniae; 15.15 h, 50 μM): 0.165 and 0.162 | Growth curve (culture density) (K. pneumoniae; 16.15 h, 50 μM): 0.186 and 0.183 | Growth curve (culture density) (K. pneumoniae; 17.15 h, 50 μM): 0.218 and 0.214 | growth with urea as sole nitrogen source (K. pneumoniae; [7]): not viable | bacterial viability (spot dilutions) (S. aureus): not lethal to bacteria | K. pneumoniae urease-dependent pH change (pH) ([2]; 0.19 μM, 24 h): 8.15 and 8.19 | K. pneumoniae urease-dependent pH change (pH) ([2]; 0.39 μM, 24 h): 8.16 and 8.12 | K. pneumoniae urease-dependent pH change (pH) ([2]; 0.78 μM, 24 h): 8.08 and 8.03 | K. pneumoniae urease-dependent pH change (pH) ([2]; 1.56 μM, 24 h): 7.97 and 7.75 | K. pneumoniae urease-dependent pH change (pH) ([2]; 3.12 μM, 24 h): 7.86 and 7.57 | K. pneumoniae urease-dependent pH change (pH) ([2]; 6.25 μM, 24 h): 7.81 and 7.46 | K. pneumoniae urease-dependent pH change (pH) ([2]; 12.5 μM, 24 h): 7.78 and 7.33 | K. pneumoniae urease-dependent pH change (pH) ([2]; 25 μM, 24 h): 7.75 and 7.40 | K. pneumoniae urease-dependent pH change (pH) ([2]; 50 μM, 24 h): 7.87 and 7.54 | K. pneumoniae urease-dependent pH change (pH) ([2]; 100 μM, 24 h): 8.02 and 7.77 | K. pneumoniae urease-dependent pH change (pH) ([2]; 200 μM, 24 h): 8.03 and 8.04 | effect on urease activity ([2]; K. pneumoniae, 24 h): did not significantly affect urease activity | Struvite crystal quantification (count) ([3]; 3.12 μM): 59 and 42 | Struvite crystal quantification (count) ([3]; 6.25 μM): 99 and 82 | Struvite crystal quantification (count) ([3]; 12 μM): 74 and 95 | Struvite crystal quantification (count) ([3]; 25 μM): 68 and 103 | Struvite crystal quantification (count) ([3]; 50 μM): 72 and 91 | Struvite crystal quantification (count) ([3]; 100 μM): 70 and 83 | Struvite crystal quantification (count) ([3]; 200 μM): 36 and 49

N[C@@H](CN[C@@H](CN[C@@H](CC(=O)O)C(=O)O)C(=O)O)C(=O)O.[Zn+2] [Zn-AMA]
Growth curve (culture density) (K. pneumoniae): 0.101 and 0.102 and 0.103 and 0.104 and 0.105 and 0.107 and 0.106 and 0.108 | Growth curve (culture density) (K. pneumoniae; 15.15 h, 50 μM): 0.107 and 0.104 | Growth curve (culture density) (K. pneumoniae; 16.15 h, 50 μM): 0.107 and 0.103 | Growth curve (culture density) (K. pneumoniae; 17.15 h, 50 μM): 0.107 and 0.102 | growth with urea as sole nitrogen source (K. pneumoniae; [7]): did not | growth with urea as sole nitrogen source (K. pneumoniae; medium supplemented with 0.25 μM NiCl): inhibited the growth of K. pneumoniae | effect on biofilm production (S. aureus biofilm): anti-biofilm activity was not observed | bacterial viability (spot dilutions) (S. aureus): not lethal to bacteria | Biofilm (A595), crystal violet (K. pneumoniae biofilm; 1.56 μM, artificial urine): 0.659 and 0.666 and 0.436 and 0.533 | Planktonic (A595) (K. pneumoniae biofilm; 1.56 μM, artificial urine): 0.141 and 0.142 and 0.148 and 0.16 | Biofilm (A595), crystal violet (K. pneumoniae biofilm; 3.12 μM, artificial urine): 0.633 and 0.585 and 0.45 and 0.471 | Planktonic (A595) (K. pneumoniae biofilm; 3.12 μM, artificial urine): 0.147 and 0.142 and 0.13 and 0.155 | Planktonic (A595) (K. pneumoniae biofilm; 6.2 μM, artificial urine): 0.194 and 0.11 and 0.126 and 0.129 | Planktonic (A595) (K. pneumoniae biofilm; 12.5 μM, artificial urine): 0.177 and 0.124 and 0.113 and 0.167 | Planktonic (A595) (K. pneumoniae biofilm; 25 μM, artificial urine): 0.165 and 0.136 and 0.151 and 0.152 | Planktonic (A595) (K. pneumoniae biofilm; 50 μM, artificial urine): 0.165 and 0.152 and 0.157 and 0.154 | Planktonic (A595) (K. pneumoniae biofilm; 100 μM, artificial urine): 0.171 and 0.148 and 0.158 and 0.166 | Planktonic (A595) (K. pneumoniae biofilm; 200 μM, artificial urine): 0.167 and 0.176 and 0.175 and 0.166 | effect on biofilm production (K. pneumoniae biofilm; M9 minimal medium): biofilms were unperturbed | effect on biofilm production (K. pneumoniae biofilm; artificial urine): completely suppress biofilm production | K. pneumoniae urease-dependent pH change (pH) ([2]; 0.19 μM, 24 h): 8.14 and 8.10 | K. pneumoniae urease-dependent pH change (pH) ([2]; 0.39 μM, 24 h): 8.08 and 8.00 | K. pneumoniae urease-dependent pH change (pH) ([2]; 0.78 μM, 24 h): 7.84 and 7.81 | K. pneumoniae urease-dependent pH change (pH) ([2]; 1.56 μM, 24 h): 7.60 and 7.55 | K. pneumoniae urease-dependent pH change (pH) ([2]; 3.12 μM, 24 h): 7.41 and 7.27 | K. pneumoniae urease-dependent pH change (pH) ([2]; 6.25 μM, 24 h): 7.11 | K. pneumoniae urease-dependent pH change (pH) ([2]; 12.5 μM, 24 h): 6.87 and 6.85 | K. pneumoniae urease-dependent pH change (pH) ([2]; 25 μM, 24 h): 6.76 and 6.71 | K. pneumoniae urease-dependent pH change (pH) ([2]; 50 μM, 24 h): 6.66 and 6.60 | K. pneumoniae urease-dependent pH change (pH) ([2]; 100 μM, 24 h): 6.65 and 6.54 | K. pneumoniae urease-dependent pH change (pH) ([2]; 200 μM, 24 h): 6.80 and 6.56 | concentration that significantly suppressed urease activity ([2]; K. pneumoniae, 24 h): 50 µM | EC50 ([2]; Klebsiella pneumoniae, K. pneumoniae, read-out: EC50, half-maximal effective concentration required to suppress urease-dependent pH change): 2.5 ± 0.4 µM | effect on stability of recombinant NikA (NikA [4]): increase NikA’s stability | Struvite crystal quantification (count) ([3]; 3.12 μM): 25 and 43 | Struvite crystal quantification (count) ([3]; 6.25 μM): 42 and 62 | Struvite crystal quantification (count) ([3]; 12 μM): 48 and 82 | Struvite crystal quantification (count) ([3]; 50 μM): 0 | Struvite crystal quantification (count) ([3]; 100 μM): 0 | Struvite crystal quantification (count) ([3]; 200 μM): 0 | effect on struvite crystals ([3]; K. pneumoniae, artificial urine): robustly prevented the appearance of struvite crystals | fold greater KD (weaker affinity) relative to Ni-(L-His)2 (NikA [5]): 14 fold | n (stoichiometry, ITC) (NikA [5]; 37 °C, pH 7.5): 0.78 | ∆G (NikA [5]; 37 °C, pH 7.5): -7.3 kcal/mol | ∆H (NikA [5]; 37 °C, pH 7.5): -11.6 kcal/mol | −T∆S (NikA [5]; 37 °C, pH 7.5): 4.3 kcal/mol | Kd (NikA [5]; read-out: KD for NikA (ITC), 25 mM Tris-HCl, 150 mM NaCl, 0.1% Triton X-100, pH 7.5, 37 °C): 6.8 ± 0.4 µM | Hyd-3 activity by zymography (Hyd-3): Suppression of Hyd-3 activity | pH of culture (Zn-AMA v.s. L-His) ([6]; Zn-AMA 6.25 μM + L-His 3.12 μM): 7.4 and 7.43 | pH of culture (Zn-AMA v.s. L-His) ([6]; Zn-AMA 6.25 μM + L-His 6.25 μM): 7.74 and 7.71 | pH of culture (Zn-AMA v.s. L-His) ([6]; Zn-AMA 6.25 μM + L-His 12.5 μM): 7.97 and 8.09 | pH of culture (Zn-AMA v.s. L-His) ([6]; Zn-AMA 6.25 μM, L-His 0 μM): 6.53 and 6.52 | pH of culture (Zn-AMA v.s. L-His) ([6]; Zn-AMA 25 μM + L-His 3.12 μM): 6.81 and 6.82 | pH of culture (Zn-AMA v.s. L-His) ([6]; Zn-AMA 25 μM + L-His 6.25 μM): 7.1 and 7.22 | pH of culture (Zn-AMA v.s. L-His) ([6]; Zn-AMA 25 μM + L-His 12.5 μM): 7.41 and 7.51 | pH of culture (Zn-AMA v.s. L-His) ([6]; Zn-AMA 25 μM, L-His 0 μM): 6.38 and 6.37
